From patent US4791139A, “Diphenyl ether derivatives and their use as insecticides” (Imperial Chemical Industries PLC, priority 1986, dated 1988)

Legend:
Assay type in all cases: in vivo
[1] = test system: Tetranychus urticae (spider mites - adult); experiment: Contact test, spider mites - adult (TUa), French bean leaf; conditions: 72 h, 3 days, read-out: TUA grading of mortality
Method: (§1) The activity of the Product was determined using a variety of insect pests. The Product was used in the form of liquid preparations containing from 100 to 500 parts per million (ppm) by weight of the Product. The preparations were made by dissolving the Product in acetone and diluting the solutions with water containing 0.1% by weight of a wetting agent sold under the trade name "SYNPERONIC" NX until the liquid preparations contained the required concentration of the Product. "SYNPERONIC" is a Registered Trade Mark. The test procedure adopted with regard to each pest was basically the same and comprised supporting a number of the pests on a medium which was usually a host plant or a foodstuff on which the pests feed, and treating either or both the pests and the medium with the preparations. The mortality of the pests was then assessed at periods usually varying from one to seven days after the treatment.

Myzus persicae (aphids) = experiment: Contact test, aphids (MP), Chinese Cabbage leaf; conditions: 72 h, 3 days, read-out: MP grading of mortality
Method: as §1, with “treatment. […] In Table III the pest organism used is designated by a letter code and the pests species, the support medium or food, and the type and duration of test is given in Table II.” for “treatment.”

[2] = test system: Musca domestica (houseflies - adults); experiment: Contact test, houseflies - adults (MD), Cotton wool/sugar; conditions: 24 h, 1 day, read-out: MD grading of mortality
Method: as §1

[3] = test system: Heliothis virescens (tobacco budworm - larvae); experiment: Residual test, tobacco budworm - larvae (HV), Cotton leaf; conditions: 72 h, read-out: HV grading of mortality
Method: (§2) The activity of the Product was determined using a variety of insect pests. The Product was used in the form of liquid preparations containing from 100 to 500 parts per million (ppm) by weight of the Product. The preparations were made by dissolving the Product in acetone and diluting the solutions with water containing 0.1% by weight of a wetting agent sold under the trade name "SYNPERONIC" NX until the liquid preparations contained the required concentration of the Product. "SYNPERONIC" is a Registered Trade Mark.
(§3) The test procedure adopted with regard to each pest was basically the same and comprised supporting a number of the pests on a medium which was usually a host plant or a foodstuff on which the pests feed, and treating either or both the pests and the medium with the preparations. The mortality of the pests was then assessed at periods usually varying from one to seven days after the treatment.
(§4) The results of the tests are given in Table III for each of the Products, at the rate in parts per million given in the second column as a grading of mortality designated as A, B or C wherein A indicates 80-100% mortality or knockdown (70-100% for Meloidogyne incognita), B indicates 50-79% mortality knockdown or knockdown (50-69% for Meloidogyne incognita) and C indicates less than 50% mortality or knockdown.
(§5) In Table III the pest organism used is designated by a letter code and the pests species, the support medium or food, and the type and duration of test is given in Table II.
(tobacco budworm - larvae)

[4] = test system: Musca domestica (houseflies - adults); experiment: Knockdown test, houseflies - adults (MD/KD), Cotton wool/sugar; conditions: 4 hours, read-out: MD/KD grading of knockdown
Method: as §2, §3
In the case of the species Musca domestica (housefly), an additional assessment to determine the knockdown effect of the compounds was performed.
as §5

[5] = test system: Nilaparvata lugens (brown plant hopper - nymphs); experiment: Contact test, brown plant hopper - nymphs (NL), Rice plant; conditions: 72 h, 3 days, read-out: NL grading of mortality
Method: as §1

[6] = test system: Meloidogyne incognita (Tomato root knot eelworm - larvae); experiment: Residual test, Tomato root knot eelworm - larvae (MI), Semi in-vitro; conditions: 168 h, application rate is half that recorded, 7 days, read-out: MI grading of mortality; for mortality at 125 µg/mL: rate 250 ppm; for mortality at 250 µg/mL: rate column 500 ppm
[7] = test system: Diabrotica balteata (rootworm larvae); experiment: Residual test, rootworm larvae (DB), Filter paper/maize seed; conditions: 72 h, 3 days, read-out: DB grading of mortality
Method: as §1

[8] = test system: Blattella germanica (cockroach nymphs); experiment: Residual test, cockroach nymphs (BG), Plastic pot; conditions: 72 h, 3 days, read-out: BG grading of mortality
Method: as §1

[9] = test system: Spodoptera exigua (lesser army worm - larvae); experiment: Residual test, lesser army worm - larvae (SP), Cotton leaf; conditions: 72 h, 3 days, read-out: SP grading of mortality
Method: as §2, §3, §4, §5
(lesser army worm - larvae)

[10] = test system: Tetranychus urticae (spider mites - ova); experiment: Contact test, spider mites - ova (TUe), French bean leaf; conditions: 144 h, 6 days, read-out: TUE grading of mortality
Method: as §1

FC(F)(F)C(CCCc1cccc(Oc2ccccc2)c1)c1ccc2c(c1)CCC2 (racemic) [Compound 52, 1,1,1-Trifluoro-2-(5-indanyl)-5-(3-phenoxyphenyl)pentane]
mortality at 250 ppm [1]: 80 to 100%
mortality at 250 ppm (Myzus persicae (aphids)): 50 to 79%
mortality at 250 ppm [2]: 50 to 79%
mortality at 250 ppm [3]: 80 to 100%
pest or weed control at 250 ppm [4]: < 50%
mortality at 250 ppm [5]: 80 to 100%
mortality at 125 µg/mL [6]: < 50%
mortality at 250 ppm [7]: < 50%
mortality at 250 ppm [8]: 80 to 100%
mortality at 250 ppm [9]: 80 to 100%
mortality at 250 ppm [10]: < 50%

Fc1ccc(C(CCCc2cccc(Oc3ccccc3)c2)C(F)(F)F)cc1 (racemic) [Compound 53, 1,1,1-Trifluoro-2-(4-fluorophenyl)-5-(3-phenoxyphenyl)pentane]
mortality at 250 ppm [1]: 80 to 100%
mortality at 250 ppm (Myzus persicae (aphids)): 80 to 100%
mortality at 250 ppm [2]: 80 to 100%
mortality at 250 ppm [3]: 80 to 100%
pest or weed control at 250 ppm [4]: < 50%
mortality at 250 ppm [5]: 80 to 100%
mortality at 125 µg/mL [6]: < 50%
mortality at 250 ppm [7]: 80 to 100%
mortality at 250 ppm [8]: 80 to 100%
mortality at 250 ppm [9]: 80 to 100%
mortality at 250 ppm [10]: < 50%

CCOc1ccc(C(CCC(C#N)c2cccc(Oc3ccccc3)c2)C(F)(F)F)cc1 (racemic) [Compound 54, 1,1,1-Trifluoro-2-(4-ethoxyphenyl)-5-cyano-5-(3-phenoxyphenyl)pentane]
mortality at 500 ppm [1]: < 50%
mortality at 500 ppm (Myzus persicae (aphids)): 80 to 100%
mortality at 500 ppm [2]: 80 to 100%
mortality at 500 ppm [3]: 80 to 100%
pest or weed control at 500 ppm [4]: 80 to 100%
mortality at 500 ppm [5]: 80 to 100%
mortality at 250 µg/mL [6]: < 50%
mortality at 500 ppm [7]: < 50%
mortality at 500 ppm [8]: < 50%
mortality at 500 ppm [9]: 80 to 100%
mortality at 500 ppm [10]: < 50%

CCOc1ccc(C(CCC(C)c2cccc(Oc3ccccc3)c2)C(F)(F)F)cc1 (racemic) [Compound 55, 1,1,1-Trifluoro-2-(4-ethoxyphenyl)-5-(3-phenoxyphenyl)hexane]
mortality at 500 ppm [1]: < 50%
mortality at 500 ppm (Myzus persicae (aphids)): 80 to 100%
mortality at 500 ppm [2]: 80 to 100%
mortality at 500 ppm [3]: 80 to 100%
pest or weed control at 500 ppm [4]: 80 to 100%
mortality at 500 ppm [5]: 80 to 100%
mortality at 250 µg/mL [6]: < 50%
mortality at 500 ppm [7]: 50 to 79%
mortality at 500 ppm [8]: 80 to 100%
mortality at 500 ppm [9]: 80 to 100%
mortality at 500 ppm [10]: < 50%

CCOc1ccc(C(CCCc2cccc(Oc3ccccc3)c2)C(F)(F)F)cc1F (racemic) [Compound 56, 1,1,1-Trifluoro-2-(3-fluoro-4-ethoxyphenyl)-5-(3-phenoxyphenyl)pentane]
mortality at 500 ppm [1]: 80 to 100%
mortality at 500 ppm (Myzus persicae (aphids)): 80 to 100%
mortality at 500 ppm [2]: 80 to 100%
mortality at 500 ppm [3]: 80 to 100%
pest or weed control at 500 ppm [4]: 80 to 100%
mortality at 500 ppm [5]: 80 to 100%
mortality at 250 µg/mL [6]: < 50%
mortality at 500 ppm [7]: 80 to 100%
mortality at 500 ppm [8]: 80 to 100%
mortality at 500 ppm [9]: 80 to 100%
mortality at 500 ppm [10]: 80 to 100%

CCOc1c(F)cc(C(CCCc2cccc(Oc3ccccc3)c2)C(F)(F)F)cc1F (racemic) [Compound 57, 1,1,1-Trifluoro-2-(3,5-difluoro-4-ethoxyphenyl)-5-(3-phenoxyphenyl)pentane]
mortality at 500 ppm [1]: 80 to 100%
mortality at 500 ppm (Myzus persicae (aphids)): 80 to 100%
mortality at 500 ppm [2]: 80 to 100%
mortality at 500 ppm [3]: 80 to 100%
pest or weed control at 500 ppm [4]: 80 to 100%
mortality at 500 ppm [5]: 80 to 100%
mortality at 250 µg/mL [6]: < 50%
mortality at 500 ppm [7]: 80 to 100%
mortality at 500 ppm [8]: 80 to 100%
mortality at 500 ppm [9]: 80 to 100%
mortality at 500 ppm [10]: 80 to 100%

OC(CCCc1cccc(Oc2ccccc2)c1)(c1ccc(OC(F)(F)F)cc1)C(F)(F)F (racemic) [Compound 59, 1,1,1-trifluoro-2-hydroxy-2-(4-trifluoromethoxyphenyl)-5-(3-phenoxyphenyl)pentane]
mortality at 500 ppm [1]: 80 to 100%
mortality at 500 ppm (Myzus persicae (aphids)): < 50%
mortality at 500 ppm [2]: < 50%
mortality at 500 ppm [3]: < 50%
pest or weed control at 500 ppm [4]: < 50%
mortality at 500 ppm [5]: 80 to 100%
mortality at 250 µg/mL [6]: < 50%
mortality at 500 ppm [7]: 80 to 100%
mortality at 500 ppm [8]: < 50%
mortality at 500 ppm [9]: < 50%
mortality at 500 ppm [10]: < 50%

FC(F)(F)Oc1ccc(C(F)(CCCc2cccc(Oc3ccccc3)c2)C(F)(F)F)cc1 (racemic) [Compound 60, 1,1,1,2-tetrafluoro-2-(4-trifluoromethoxyphenyl)-5-(3-phenoxyphenyl)pentane]
mortality at 250 ppm [1]: 80 to 100%
mortality at 250 ppm (Myzus persicae (aphids)): 80 to 100%
mortality at 250 ppm [2]: 80 to 100%
mortality at 250 ppm [3]: 80 to 100%
pest or weed control at 250 ppm [4]: 80 to 100%
mortality at 250 ppm [5]: 80 to 100%
mortality at 125 µg/mL [6]: < 50%
mortality at 250 ppm [7]: 80 to 100%
mortality at 250 ppm [8]: 80 to 100%
mortality at 250 ppm [9]: 80 to 100%
mortality at 250 ppm [10]: 80 to 100%

FC(F)(F)Oc1ccc(C(Cl)(CCCc2cccc(Oc3ccccc3)c2)C(F)(F)F)cc1 (racemic) [Compound 62, 1,1,1-trifluoro-2-chloro-2-(4-trifluoromethoxyphenyl)-5-(3-phenoxyphenyl)pentane]
mortality at 250 ppm [1]: < 50%
mortality at 250 ppm (Myzus persicae (aphids)): < 50%
mortality at 250 ppm [2]: < 50%
mortality at 250 ppm [3]: < 50%
pest or weed control at 250 ppm [4]: < 50%
mortality at 250 ppm [5]: < 50%
mortality at 125 µg/mL [6]: < 50%
mortality at 250 ppm [7]: < 50%
mortality at 250 ppm [8]: < 50%
mortality at 250 ppm [9]: < 50%
mortality at 250 ppm [10]: < 50%

FC(F)C(F)(F)Oc1ccc(C(CCCc2cccc(Oc3ccccc3)c2)C(F)(F)F)cc1 (racemic) [Compound 63, 1,1,1-trifluoro-2-[4-(1,1,2,2-tetrafluoroethoxy)phenyl]-5-(3-phenoxyphenyl)pentane]
mortality at 500 ppm [1]: 80 to 100%
mortality at 500 ppm (Myzus persicae (aphids)): 80 to 100%
mortality at 500 ppm [2]: 80 to 100%
mortality at 500 ppm [3]: 80 to 100%
pest or weed control at 500 ppm [4]: 80 to 100%
mortality at 500 ppm [5]: 80 to 100%
mortality at 250 µg/mL [6]: < 50%
mortality at 500 ppm [7]: 80 to 100%
mortality at 500 ppm [8]: 80 to 100%
mortality at 500 ppm [9]: 80 to 100%
mortality at 500 ppm [10]: 80 to 100%

CCOc1c(F)cc(C(CCCc2ccc(F)c(Oc3ccccc3)c2)C(F)(F)F)cc1F (racemic) [Compound 64, 1,1,1-Trifluoro-2-(3,5-difluoro-4-ethoxyphenyl)-5-(4-fluoro-3-phenoxyphenyl)pentane]
mortality at 500 ppm [1]: 80 to 100%
mortality at 500 ppm (Myzus persicae (aphids)): 80 to 100%
mortality at 500 ppm [2]: 80 to 100%
mortality at 500 ppm [3]: 80 to 100%
pest or weed control at 500 ppm [4]: 80 to 100%
mortality at 500 ppm [5]: 80 to 100%
mortality at 250 µg/mL [6]: < 50%
mortality at 500 ppm [7]: 50 to 79%
mortality at 500 ppm [8]: 80 to 100%
mortality at 500 ppm [9]: 80 to 100%
mortality at 500 ppm [10]: 80 to 100%
